The text below walks through data of patent US4745067A, “L-aminoacylases” (Microbial Chemistry Research Foundation, priority 1985, dated 1988).

For test [1], the system named is L-aminoacylase S1. In words: Substrate profile of L-aminoacylase S1. The class given is biochemical, Streptomyces hachijoensis. The settings on record: for Relative activity (%): compound used as substrate, L-N-acetyl-methionine evaluated to be 100. The method, then: (§1) The enzymatic activity was measured by using N-acyl derivatives of various amino acids as the substrate.

Test [2] deals with L-aminoacylase S2. Kind of test: Substrate profile of L-aminoacylase S2. The settings on record: for Relative activity (%): compound used as substrate, L-N-acetyl-methionine evaluated to be 100. The class given is biochemical, Streptoverticillium rimofaciens. On the procedure: as §1
For test [3], the system named is L-aminoacylase S1. In words: Influence of metal ions on L-aminoacylase S1. Type of test: biochemical, Streptomyces hachijoensis. The settings on record: for Relative activity (%): 1 mM metal salt, 37° C. one hour, substrate N-Ac-DB-DOPS, no metal added = 100%. On the procedure: (§2) A potassium phosphate buffer solution (pH 7.0) of the enzyme of the present invention was treated for one hour at various temperatures, and the remaining activity was measured. As the substrate, L-threo-N-acetyl-3-(3,4-dibenzyloxyphenyl)serine (hereinafter referred to simply as N-Ac-DB-DOPS) was employed, and the reaction was conducted at 37° C. for one hour, whereupon freed L-threo-3-(3,4-dibenzyloxyphenyl)serine (hereinafter referred to simply as DB-DOPS) was measured by a ninhydrin method to determine the activity.
L-aminoacylase S1 of the present invention is added to a 0.1 M Veronal buffer solution containing a final concentration of 1 mM of various metal salts, and left to stand at 37° C. for one hour. Then, it was reacted with N-Ac-DB-DOPS as the substrate at 37° C. for 1 hour, whereby the relative activity was measured by the above-mentioned method. The one where no metal was added, was evaluated to be 100%.

Test [4] has as its system L-aminoacylase S2. In words: Influence of metal ions on L-aminoacylase S2. The class given is biochemical, Streptoverticillium rimofaciens. As to conditions: for Relative activity (%): 1 mM metal salt, 37° C. 1 hour, substrate N-Ac-DB-DOPS, no metal salt added = 100%. On the procedure:
As the substrate, N-Ac-DB-DOPS was used, and the reaction was conducted at 37° C. for one hour, whereby freed DB-DOPS was measured by a ninhydrin method to determine the enzymatic activity.
L-aminoacylase S2 of the present invention was added to 0.1 M Veronal buffer solution containing as the final concentration 1 mM of various metal salts, and the reaction was conducted at 37° C. for 1 hour. Then, it was reacted with N-Ac-DB-DOPS as the substrate at 37° C. for one hour, whereupon the relative activity was measured by the above-mentioned method. The activity of the one where no metal salt was added, was evaluated to be 100%.

The test system of test [5] is L-aminoacylase S2. Kind of test: Influence of inhibitors on L-aminoacylase S2. The class given is biochemical, Streptoverticillium rimofaciens. The method, then: As the substrate, N-Ac-DB-DOPS was used, and the reaction was conducted at 37° C. for one hour, whereby freed DB-DOPS was measured by a ninhydrin method to determine the enzymatic activity. As shown in the Figure, 20% is deactivated by the treatment at 60° C., and at least 70% is deactivated at 70° C. However, the enzyme is certainly stable at 50° C.
The enzyme of the present invention was left to stand for one hour at 37° C. together with various inhibitors, and then reacted at 37° C. for one hour with N-Ac-DB-DOPS as the substrate, whereupon the remaining activity was measured by the above-mentioned method.

Test [6] has as its system L-aminoacylase S1. Kind of test: Influence of inhibitors on L-aminoacylase S1. Type of test: biochemical, Streptomyces hachijoensis. The method, then:
as §2, with “activity. As shown, 95% or more is deactivated by the treatment at pH 7.0 at 60° C., but the enzyme is certainly stable at a temperature of 50° C. or lower.” for “activity.”
The enzyme of the present invention is left to stand at 37° C. for one hour together with various inhibitors, and then reacted with N-Ac-DB-DOPS as the substrate at 37° C. for one hour, whereby the remaining activity was measured by the above-mentioned method.

The mark [7] stands for this setting: L-aminoacylase S2, inhibitor 1 mM, 37° C. one hour, substrate N-Ac-DB-DOPS.
[8] abbreviates: L-aminoacylase S1, inhibitor 1 mM, 37° C. one hour, substrate N-Ac-DB-DOPS.

“Also recorded” adds a separate entry of the source. Where two headings read alike, the source gives them in different places.

Turning to `CC(=O)NC(C)c1ccccc1` (racemic) [DL-N--acetyl-α-methylbenzylamine, DL-N-acetyl-α-methylbenzylamine], in the test with L-aminoacylase S1 [1], the “Action of the enzyme on the substrate (in words)” value (shortened to “Action of the enzyme”) is “does not act” and the “Relative activity (%)” value is reported as 0%. For the same compound, in the test on L-aminoacylase S2 [2], the “Action of the enzyme” value is “does not act” and the “Relative activity (%)” value is 0%.
Consider `[Ag+]` [Ag^+], for which, in the test on L-aminoacylase S1 [3], the “Influence of metal ions on activity (in words)” value (“Influence of metal ions” for short) is “strongly inhibited” and the “Relative activity (%)” value was determined as 3%. Further, in the test on L-aminoacylase S2 [4], the “Influence of metal ions” value is listed as “prohibited; also recorded: strongly inhibited” and the “Relative activity (%)” value is 0%.
With `[Ca+2]` [Ca^++], the “Relative activity (%)” value with L-aminoacylase S1 [3] came out at 72%; in the test with L-aminoacylase S2 [4], 98%.
Regarding `[Co+2]` [Co^++], in the test with L-aminoacylase S1 [3], the “Influence of metal ions” value was “activated” and the “Relative activity (%)” value stood at 162%. Besides, in the test with L-aminoacylase S2 [4], the “Influence of metal ions” value is “prohibited; also recorded: strongly inhibited” and the “Relative activity (%)” value was 38%.
For the compound `[Cu+2]` [Cu^++], in the test with L-aminoacylase S1 [3], the “Influence of metal ions” value is “strongly inhibited” and the “Relative activity (%)” value worked out at 14%. Also, in the test with L-aminoacylase S2 [4], the “Influence of metal ions” value was “prohibited; also recorded: strongly inhibited” and the “Relative activity (%)” value was determined as 16%.
Turning to `CSCC[C@@H](NC(C)=O)C(=O)O` [D-N--acetyl-methionine], the “Relative activity (%)” value in the test on L-aminoacylase S1 [1] and with L-aminoacylase S2 [2] was 0% throughout.
Turning to `CC(=O)N[C@H](Cc1c[nH]c2ccccc12)C(=O)O` [D-N--acetyl-tryptophan], the “Relative activity (%)” value with L-aminoacylase S1 [1] and in the test with L-aminoacylase S2 [2] was 0% throughout.
For `[Fe+2]` [Fe^++], in the test on L-aminoacylase S1 [3], the “Influence of metal ions” value was “strongly inhibited” and the “Relative activity (%)” value came out at 17%. In addition, in the test on L-aminoacylase S2 [4], the “Influence of metal ions” value is reported as “prohibited; also recorded: strongly inhibited” and the “Relative activity (%)” value came to 18%.
As for `[Hg+2]` [Hg^++], in the test with L-aminoacylase S1 [3], the “Influence of metal ions” value is reported as “strongly inhibited” and the “Relative activity (%)” value is on record as 2%. In the test with L-aminoacylase S2 [4], the “Influence of metal ions” value was “prohibited; also recorded: strongly inhibited” and the “Relative activity (%)” value amounted to 15%.
On to `CC(=O)N[C@H](C(=O)O)c1ccc(CO)c(O)c1` [L-N--acetyl-2-(4-hydroxymethyl-3-hydroxyphenyl)glycine], for which the “Relative activity (%)” value in the test on L-aminoacylase S1 [1] came to 41%; in the test on L-aminoacylase S2 [2] it was 65%.
In the same order, the values of `CC(=O)N[C@@H](C)C(=O)O` [L-N--acetyl-alanine] are 7% and 8%.
In the case of `CC(=O)N[C@@H](CCCNC(=N)N)C(=O)O` [L-N--acetyl-arginine], the “Relative activity (%)” value in the test on L-aminoacylase S1 [1] is on record as 85%; in the test with L-aminoacylase S2 [2], 61%.
With `CC(=O)N[C@@H](CCC(=O)O)C(=O)O` [L-N--acetyl-glutamic acid], the results for the “Relative activity (%)” value in the test with L-aminoacylase S1 [1] and with L-aminoacylase S2 [2] were 19% and 18%, respectively.
For `CC(=O)N[C@@H](Cc1c[nH]cn1)C(=O)O` [L-N--acetyl-histidine], the figures for the “Relative activity (%)” value with L-aminoacylase S1 [1] and in the test on L-aminoacylase S2 [2] were 41% and 36%, respectively.
Regarding `CC(=O)N[C@@H](CC(C)C)C(=O)O` [L-N--acetyl-leucine], the “Relative activity (%)” value in the test on L-aminoacylase S1 [1] is on record as 76%; with L-aminoacylase S2 [2], 71%.
With `CSCC[C@H](NC(C)=O)C(=O)O` [L-N--acetyl-methionine, L-N-acetyl-methionine], the “Relative activity (%)” value in the test on L-aminoacylase S1 [1] and with L-aminoacylase S2 [2] was 100% throughout.
On to `CC(=O)N[C@@H](Cc1ccccc1)C(=O)O` [L-N--acetyl-phenylalanine], for which the figures for the “Relative activity (%)” value with L-aminoacylase S1 [1] and in the test with L-aminoacylase S2 [2] were 197% and 286%, respectively.
In the case of `CC(=O)N[C@@H](Cc1c[nH]c2ccccc12)C(=O)O` [L-N--acetyl-tryptophan], the results for the “Relative activity (%)” value in the test on L-aminoacylase S1 [1] and in the test with L-aminoacylase S2 [2] were 80% and 98%, respectively.
With `CC(=O)N[C@@H](Cc1ccc(O)cc1)C(=O)O` [L-N--acetyl-tyrosine], the “Relative activity (%)” value in the test with L-aminoacylase S2 [2] was 137%.
Regarding `CC(=O)N[C@H](C(=O)O)C(C)C` [L-N--acetyl-valine], the “Relative activity (%)” value turned out to be 42% with L-aminoacylase S1 [1] and 35% with L-aminoacylase S2 [2].
Regarding `CSCC[C@H](NC(=O)c1ccccc1)C(=O)O` [L-N--benzoyl-methionine], the “Relative activity (%)” value in the test with L-aminoacylase S2 [2] came to 10%.
Consider `CSCC[C@H](NC=O)C(=O)O` [L-N--formyl-methionine], for which the “Relative activity (%)” value is 4% with L-aminoacylase S1 [1] and 5% in the test on L-aminoacylase S2 [2].
For the compound `N[C@@H](CS)C(=O)O` [L-cysteine], the “Influence of inhibitors on activity (in words)” value (from here on “Influence of inhibitors”) in the test with L-aminoacylase S2 [5] (L-aminoacylase S2) is listed as “strongly inhibited”; with L-aminoacylase S2 [5] (L-aminoacylase S2, listed as cysteine), “inhibited”. Further, the “Remaining activity (%)” value in the test with L-aminoacylase S2 [5] (setting [7]) is 11%.
With `CC(=O)N[C@H](C(=O)O)[C@H](O)c1ccc(OCc2ccccc2)c(OCc2ccccc2)c1` [L-threo-N-acetyl-3-(3,4-dibenzyloxyphenyl)serine], the “Relative activity (%)” value in the test with L-aminoacylase S1 [1] was found to be 14%; with L-aminoacylase S2 [2], 20%.
As for `[Mg+2]` [Mg^++], the “Relative activity (%)” value worked out at 107% in the test on L-aminoacylase S1 [3] and 95% in the test with L-aminoacylase S2 [4].
As for `[Mn+2]` [Mn^++], the “Relative activity (%)” value in the test on L-aminoacylase S1 [3] was determined as 61%. Further, in the test with L-aminoacylase S2 [4], the “Influence of metal ions” value is “prohibited; also recorded: strongly inhibited” and the “Relative activity (%)” value was found to be 31%.
With `O=C(O)CI` [Monoiodoacetic acid], the “Influence of inhibitors” value is reported as “strongly inhibited” with L-aminoacylase S2 [5] and “not inhibited” with L-aminoacylase S1 [6]. The figures for the “Remaining activity (%)” value with L-aminoacylase S2 [5] and with L-aminoacylase S1 [6] were 3% and 94%, respectively.
As to `CC(=O)N[C@H]1C(O)O[C@H](CO)[C@@H](O)[C@@H]1O` (stereo partly drawn) [N--acetyl-D-glucosamine, N-acetyl-D-glucosamine], in the test with L-aminoacylase S1 [1], the “Action of the enzyme” value is listed as “does not act” and the “Relative activity (%)” value came to 0%. In the test on L-aminoacylase S2 [2], the “Action of the enzyme” value is “does not act” and the “Relative activity (%)” value is listed as 0%.
`CC(=O)NCC(=O)O` [N--acetyl-glycine]: the “Relative activity (%)” value in the test on L-aminoacylase S1 [1] and in the test on L-aminoacylase S2 [2] was 2% in each case.
`[Ni+2]` [Ni^++]: in the test on L-aminoacylase S1 [3], the “Influence of metal ions” value is recorded as “strongly inhibited” and the “Relative activity (%)” value is on record as 7%. Moreover, in the test with L-aminoacylase S2 [4], the “Influence of metal ions” value is “prohibited; also recorded: strongly inhibited” and the “Relative activity (%)” value was 33%.
For `[Zn+2]` [Zn^++], the “Relative activity (%)” value in the test with L-aminoacylase S1 [3] was found to be 102%; in the test on L-aminoacylase S2 [4], 71%.
With `O=C(O)c1cc[c]([Hg][Cl])cc1` [p-chloromercuribenzoate], the “Influence of inhibitors” value with L-aminoacylase S2 [5] (L-aminoacylase S2) is “strongly inhibited”; with L-aminoacylase S1 [6] (L-aminoacylase S1), “inhibited”. The “Remaining activity (%)” value with L-aminoacylase S2 [5] (setting [7]) worked out at 0%; in the test on L-aminoacylase S1 [6] (setting [8]), 2%.
`OCCS` [β-mercaptoethanol]: the “Remaining activity (%)” value with L-aminoacylase S1 [6] (setting [8]) is on record as 76%.
